Values quoted from earlier work as cited in publication PMC11053489 (Viruses, 2024).

System: SARS-CoV-2 with mutations in the RNA-dependent RNA polymerase gene
Conditions: cited from earlier work

CCC(CC)COC(=O)[C@H](C)N[P@](=O)(OC[C@H]1O[C@@](C#N)(c2ccc3c(N)ncnn23)[C@H](O)[C@@H]1O)Oc1ccccc1 [Remdesivir]
increase in EC50 of resistant lineages: 2.5 to 10 fold
